Results: US9175007B2, “IRAK inhibitors and uses thereof” (Nimbus Iris, Inc., priority 2013, dated 2015)
Where a name gives a salt, the structure may show the parent alone.

Molecular target: T1, IRAK4 (Homo sapiens, UniProt Q9NWZ3)
T1 construct: purchased CARNA Bioscience 09-145
T1 sequence (Q9NWZ3 1-460): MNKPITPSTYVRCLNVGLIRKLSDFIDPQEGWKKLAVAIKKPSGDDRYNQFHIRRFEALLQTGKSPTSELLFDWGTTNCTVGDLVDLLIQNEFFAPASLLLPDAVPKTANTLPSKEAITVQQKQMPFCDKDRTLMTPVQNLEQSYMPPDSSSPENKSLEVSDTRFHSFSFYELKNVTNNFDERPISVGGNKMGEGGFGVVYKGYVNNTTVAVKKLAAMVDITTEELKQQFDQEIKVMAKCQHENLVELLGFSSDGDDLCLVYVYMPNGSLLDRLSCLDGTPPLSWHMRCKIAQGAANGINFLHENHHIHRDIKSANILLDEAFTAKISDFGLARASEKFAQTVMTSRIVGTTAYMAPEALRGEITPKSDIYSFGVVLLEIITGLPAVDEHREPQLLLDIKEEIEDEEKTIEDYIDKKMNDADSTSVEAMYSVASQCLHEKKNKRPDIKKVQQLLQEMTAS
Experiment: IRAK-4 activity inhibition assay (Caliper)
Type: biochemical
Details: 3.5 nM IRAK4, 37 μM ATP, 1.5 μM Peptide 8
Procedure: A 1× kinase base buffer was prepared from 50 mM HEPES, pH 7.5 and 0.0015% Brij-35. A stop buffer was prepared from 100 mM HEPES, pH 7.5, 0.015% Brij-35, 0.2% Coating Reagent #3, and 50 mM EDTA.
Test compound was diluted to 50× of the final desired highest inhibitor concentration in reaction by 100% DMSO. 100 ul of this compound dilution was transferred to a well in a 96-well plate.
Test compound was serially diluted by transferring 30 μl to 60 μl of 100% DMSO in the next well and so forth for a total of 10 concentrations. 100 μl of 100% DMSO was added to two empty wells for no compound control and no enzyme control in the same 96-well plate.
A new 96-well plate was marked as intermediate plate. 5 μl of compound serial dilution was transferred from source plate to the corresponding wells of the intermediate plate. 45 μl of 1× kinase base buffer (KB buffer) was added to each well of the intermediate plate. The intermediate plate was placed for 10 min on a shaker.
5 μl of each well was transferred from the 96-well intermediate plate to a 384-well plate in duplicates. For example, A1 of the 96-well plate is transferred to A1 and A2 of the 384-well plate. A2 of the 96-well plate is transferred to A3 and A4 of the 384-well plate, and so on.
IRAK4 and DTT in 1× kinase base buffer was added. The 2.5× enzyme mix contained 8.8 nM IRAK4 and 5 mM DTT.
Peptide 8, ATP, MgCl2 and MnCl2 were added in the 1× kinase base buffer. The 2.5× peptide mix contained 3.75 μM peptide 8, 92.5 μM ATP, 12.5 mM MgCl2 and 2.5 mM MnCl2.
Assay plate already contained 5 μl of compound in 10% DMSO. Added 10 μl of 2.5× enzyme solution to each well of the 384-well assay plate, except no enzyme control wells. The final concentration of IRAK4 in reaction was 3.5 nM. Added 10 μl of 1× kinase base buffer to no enzyme control wells in the assay plate. Incubated at room temperature for 10 min.
Added 10 μl of 2.5× peptide solution to each well of the 384-well assay plate. The final concentration of Peptide 8 and ATP was 1.5 μM and 37 μM, respectively. Incubated at 28° C. for 40 minutes. Added 25 μl of stop buffer to stop reaction. Collected data on Caliper.
Copied conversion % data from Caliper program. Converted conversion % values to percent inhibition values. Percent inhibition=(max-conversion %)/(max-min)*100, where “max” means the conversion % of DMSO control and “min” means the conversion % of no enzyme control.

SMILES	IC50
Cn1cc(Nc2nc(O[C@H]3CC[C@H](N(C)C)CC3)c3c4c(sc3n2)CCC4CC(N)=O)cn1 (some centres unmarked) [Compound I-20, 2-(12-[[4-(dimethylamino)cyclohexyl]oxy]-10-[(1-methyl-1H-pyrazol-4-yl)amino]-7-thia-9,11-diazatricyclo[6.4.0.0[2,6]]dodeca-1(8),2(6),9,11-tetraen-3-yl)acetamide]	≤ 5 µM
CN1CCN(c2ccc(Nc3nc(N[C@H]4CC[C@H](N(C)C)CC4)c4c5c(sc4n3)CCC5)cc2)CC1 [Compound I-69, 12-N-[4-(dimethylamino)cyclohexyl]-10-N-[4-(4-methylpiperazin-1-yl)phenyl]-7-thia-9,11-diazatricyclo[6.4.0.0[2,6]]dodeca-1(8),2(6),9,11-tetraene-10,12-diamine]	≤ 5 µM
CN(C)[C@H]1CC[C@H](Nc2nc(Nc3ccc(C4CCNCC4)cc3)nc3sc4c(c23)CCC4)CC1 [Compound I-71, 12-N-[4-(dimethylamino)cyclohexyl]-10-N-[4-(piperidin-4-yl)phenyl]-7-thia-9,11-diazatricyclo[6.4.0.0[2,6]]dodeca-1(8),2(6),9,11-tetraene-10,12-diamine hydrochloride]	≤ 5 µM
c1c[nH]c(Nc2nc(N[C@H]3CC[C@H](N4CCOCC4)CC3)c3c4c(sc3n2)CCC4)n1 [Compound I-11, 10-N-(1H-imidazol-2-yl)-12-N-[4-(morpholin-4-yl)cyclohexyl]-7-thia-9,11-diazatricyclo[6.4.0.0[2,6]]dodeca-1(8),2(6),9,11-tetraene-10,12-diamine]	20 to 50 µM
c1ccc(Nc2nc(N[C@H]3CC[C@H](N4CCOCC4)CC3)c3c4c(sc3n2)CCC4)cc1 [Compound I-1, N4-((1r,4r)-4-morpholinocyclohexyl)-N2-phenyl-6,7-dihydro-5H-cyclopenta[4,5]thieno[2,3-d]pyrimidine-2,4-diamine]	≤ 5 µM
CN(C)[C@H]1CC[C@H](Oc2nc(Nc3ccccc3)nc3sc4c(c23)C(CC(N)=O)CC4)CC1 (some centres unmarked) [Compound I-17, 2-(12-[[4-(dimethylamino)cyclohexyl]oxy]-10-(phenylamino)-7-thia-9,11-diazatricyclo[6.4.0.0^[2,6]]dodeca-1(12),2(6),8,10-tetraen-3-yl)acetamide]	≤ 5 µM
CN1CCC(c2ccc(Nc3nc(N[C@H]4CC[C@H](N5CCOCC5)CC4)c4c5c(sc4n3)CCC5)cc2)CC1 [Compound I-10, 10-N-[4-(1-methylpiperidin-4-yl)phenyl]-12-N-[4-(morpholin-4-yl)cyclohexyl]-7-thia-9,11-diazatricyclo[6.4.0.0[2,6]]dodeca-1(8),2(6),9,11-tetraene-10,12-diamine]	≤ 5 µM
CN(C)[C@H]1CC[C@H](Oc2nc(Nc3ccc(N4CCNCC4)cc3)nc3sc4c(c23)CCC4)CC1 [Compound I-13, 12-[[4-(dimethylamino)cyclohexyl]oxy]-N-[4-(piperazin-1-yl)phenyl]-7-thia-9,11-diazatricyclo[6.4.0.0[2,6]]dodeca-1(8),2(6),9,11-tetraen-10-amine]	≤ 5 µM
Cc1cccc(Nc2nc(N[C@H]3CC[C@H](N4CCOCC4)CC3)c3c4c(sc3n2)CCC4)c1 [Compound I-4, N4-((1r,4r)-4-morpholinocyclohexyl)-N2-(m-tolyl)-6,7-dihydro-5H-cyclopenta[4,5]thieno[2,3-d]pyrimidine-2,4-diamine]	≤ 5 µM
Cn1cc(Nc2nc(N[C@H]3CC[C@H](O)CC3)c3c4c(sc3n2)CCC4)cn1 [Compound I-16, 4-([10-[(1-methyl-1H-pyrazol-4-yl)amino]-7-thia-9,11-diazatricyclo[6.4.0.0[2,6]]dodeca-1(8),2(6),9,11-tetraen-12-yl]amino)cyclohexan-1-ol]	≤ 5 µM
COc1cccc(Nc2nc(N[C@H]3CC[C@H](N4CCOCC4)CC3)c3c4c(sc3n2)CCC4)c1 [Compound I-5, 10-N-(3-methoxyphenyl)-12-N-[4-(morpholin-4-yl)cyclohexyl]-7-thia-9,11-diazatricyclo[6.4.0.0^[2,6]]dodeca-1(8),2(6),9,11-tetraene-10,12-diamine]	≤ 5 µM
c1coc(Nc2nc(N[C@H]3CC[C@H](N4CCOCC4)CC3)c3c4c(sc3n2)CCC4)n1 [Compound I-9, 12-N-[4-(morpholin-4-yl)cyclohexyl]-10-N-(1,3-oxazol-2-yl)-7-thia-9,11-diazatricyclo[6.4.0.0[2,6]]dodeca-1(8),2(6),9,11-tetraene-10,12-diamine]	5 to 20 µM
Cn1cc(Nc2nc(NC3CCCCC3)c3c4c(sc3n2)CCC4)cn1 [Compound I-15, 12-N-cyclohexyl-10-N-(1-methyl-1H-pyrazol-4-yl)-7-thia-9,11-diazatricyclo[6.4.0.0[2,6]]dodeca-1(8),2(6),9,11-tetraene-10,12-diamine]	≤ 5 µM
CN1CCC(c2ccc(Nc3nc(N[C@H]4CC[C@H](N(C)C)CC4)c4c5c(sc4n3)CCC5)cc2)CC1 [Compound I-67, N4-((1r,4r)-4-(dimethylamino)cyclohexyl)-N2-(4-(1-methylpiperidin-4-yl)phenyl)-6,7-dihydro-5H-cyclopenta[4,5]thieno[2,3-d]pyrimidine-2,4-diamine]	≤ 5 µM
CN(C)[C@H]1CC[C@H](Oc2nc(Nc3ccccc3)nc3sc4c(c23)CCC4)CC1 [Compound I-2, 12-[[4-(dimethylamino)cyclohexyl]oxy]-N-phenyl-7-thia-9,11-diazatricyclo[6.4.0.0[2,6]]dodeca-1(8),2(6),9,11-tetraen-10-amine]	≤ 5 µM
c1cc(C2CCNCC2)ccc1Nc1nc(N[C@H]2CC[C@H](N3CCOCC3)CC2)c2c3c(sc2n1)CCC3 [Compound I-70, 12-N-[4-(morpholin-4-yl)cyclohexyl]-10-N-[4-(piperidin-4-yl)phenyl]-7-thia-9,11-diazatricyclo[6.4.0.0[2,6]]dodeca-1(8),2(6),9,11-tetraene-10,12-diamine hydrochloride]	≤ 5 µM
c1ccc(Nc2nc(N[C@H]3CC[C@H](N4CCOCC4)CC3)c3c4c(sc3n2)CCCC4)cc1 [Compound I-7, 3-N-[4-(morpholin-4-yl)cyclohexyl]-5-N-phenyl-8-thia-4,6-diazatricyclo[7.4.0.0[2,7]]trideca-1(9),2,4,6-tetraene-3,5-diamine]	≤ 5 µM
Fc1cccc(Nc2nc(N[C@H]3CC[C@H](N4CCOCC4)CC3)c3c4c(sc3n2)CCC4)c1 [Compound I-3, N2-(3-fluorophenyl)-N4-((1r,4r)-4-morpholinocyclohexyl)-6,7-dihydro-5H-cyclopenta[4,5]thieno[2,3-d]pyrimidine-2,4-diamine]	≤ 5 µM
Cc1ccc(Nc2nc(N[C@H]3CC[C@H](N4CCOCC4)CC3)c3c4c(sc3n2)CCC4)cc1 [Compound I-6, N4-((1r,4r)-4-morpholinocyclohexyl)-N2-(p-tolyl)-6,7-dihydro-5H-cyclopenta[4,5]thieno[2,3-d]pyrimidine-2,4-diamine]	20 to 50 µM
c1coc(Nc2nc(N[C@H]3CC[C@H](N4CCOCC4)CC3)c3c4c(sc3n2)CCCC4)n1 [Compound I-8, 3-N-[4-(morpholin-4-yl)cyclohexyl]-5-N-(1,3-oxazol-2-yl)-8-thia-4,6-diazatricyclo[7.4.0.0[2,7]]trideca-1(9),2(7),3,5-tetraene-3,5-diamine]	5 to 20 µM
